# Reference: patent US9255295B2, “Method for evaluating the sensitizing potential of a test compound” (IMMUNOSEARCH, priority 2010, dated 2016)
# Read-outs that look alike come from different tables or passages of the source.
# Key:
# [1] = system: ARE gene family (AKR1B10, AKR1C1, AKR1C2, CYP1B1, FTH1P, FTL, G6PD, GCLM, NQO2, SLC7A11, TXNRD1, UGT1A1, UGT1A9, YWHAZ, CD36, CYP1A1, GCLC, HMOX1, NQO1, PSME2 …)
# [2] = system: genes specific for sensitization (BRAK, CTSS, DAPK2, FABP4, HSP27, IL18, HSP90, IL1R2, TPSAB1, CXCR1, DEFB1, DHFR, EHF, IVL, KRT4, MELANA, NGAL, PDZK1IP1, PI3 …); assay: Expression of the other (non-ARE) sensitization-specific genes in EPISKIN reconstructed skin (quantitative RT-PCR); type: cell-based, human; settings: for BRAK expression / CTSS expression / CXCR1 expression / DAPK2 expression / DEFB1 expression / DHFR expression / EHF expression / FABP4 expression / HSP27 expression / HSP90 expression / IL18 expression / IVL expression / KRT4 expression / MELANA expression / NGAL expression / P13 expression / PDZK1iP1 expression / SERPINB3 expression: compared to the control;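 on CTSS NUMBER OF GENES grade: grade scored against expression in the control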;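 on CXCR1 NUMBER OF GENES grade: grade scored against expression in the control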;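 on DAPK2 NUMBER OF GENES grade: grade scored against expression in the control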
compound,measurement,setting,value
C=CCc1ccc(O)c(OC)c1 [Eugenol],sensitizing power (class),EPISKIN model,WEAK
same,ARE >1.3 (number of genes),[1],10
same,TOTAL ARE (number of genes),[1],10
same,AHR expression,"[1]; human, 6 h, 10 %",0.8
same,AKR1B10 expression,"[1]; human, 6 h, 10 %",0.9
same,AKR1C1 expression,"[1]; human, 6 h, 10 %",1.3
same,AKR1C2 expression,"[1]; human, 6 h, 10 %",1.1
same,ARE >1.3 (number of genes),"[1]; human, 6 h, 10 %",3
same,CD36 expression,"[1]; human, 6 h, 10 %",1.7
same,CYP1A1 expression,"[1]; human, 6 h, 10 %",0.5
same,CYP1B1 expression,"[1]; human, 6 h, 10 %",0.6
same,FTH1P expression,"[1]; human, 6 h, 10 %",1.1
same,FTL expression,"[1]; human, 6 h, 10 %",1.1
same,GCLC expression,"[1]; human, 6 h, 10 %",1.3
same,GCLM expression,"[1]; human, 6 h, 10 %",1.1
same,HMOX1 expression,"[1]; human, 6 h, 10 %",1.3
same,NQO1 expression,"[1]; human, 6 h, 10 %",1.1
same,NQO2 expression,"[1]; human, 6 h, 10 %",1.0
same,S100A8 expression,"[1]; human, 6 h, 10 %",1.0
same,SLC7A11 expression,"[1]; human, 6 h, 10 %",1.2
same,TOTAL ARE (number of genes),"[1]; human, 6 h, 10 %",3
same,TXNRD1 expression,"[1]; human, 6 h, 10 %",1.1
same,UGT1A1 expression,"[1]; human, 6 h, 10 %",1.0
same,UGT1A9 expression,"[1]; human, 6 h, 10 %",0.7
same,AHR expression,"[1]; human, 6 h, 50 %",1.3
same,AKR1B10 expression,"[1]; human, 6 h, 50 %",1.0
same,AKR1C1 expression,"[1]; human, 6 h, 50 %",0.7
same,AKR1C2 expression,"[1]; human, 6 h, 50 %",0.7
same,CD36 expression,"[1]; human, 6 h, 50 %",2.3
same,CYP1A1 expression,"[1]; human, 6 h, 50 %",2.3
same,CYP1B1 expression,"[1]; human, 6 h, 50 %",0.9
same,FTH1P expression,"[1]; human, 6 h, 50 %",2.3
same,FTL expression,"[1]; human, 6 h, 50 %",4.2
same,GCLC expression,"[1]; human, 6 h, 50 %",3.2
same,GCLM expression,"[1]; human, 6 h, 50 %",1.1
same,HMOX1 expression,"[1]; human, 6 h, 50 %",2.4
same,NQO1 expression,"[1]; human, 6 h, 50 %",0.7
same,NQO2 expression,"[1]; human, 6 h, 50 %",1.3
same,S100A8 expression,"[1]; human, 6 h, 50 %",1.9
same,SLC7A11 expression,"[1]; human, 6 h, 50 %",2.6
same,TXNRD1 expression,"[1]; human, 6 h, 50 %",3.0
same,UGT1A1 expression,"[1]; human, 6 h, 50 %",0.5
same,UGT1A9 expression,"[1]; human, 6 h, 50 %",25.0
same,BRAK NUMBER OF GENES grade,[2]; 10%,"0 (if this expression is lower, the grade is 0)"
same,CTSS NUMBER OF GENES grade,[2]; 10%,"0 (if this expression is lower, the grade is 0)"
same,CXCR1 NUMBER OF GENES grade,[2]; 10%,"0 (if this expression is lower, the grade is 0)"
same,DAPK2 NUMBER OF GENES grade,[2]; 10%,"1 (If the expression is greater than 1.3 compared to the control, a grade of 11s given)"
same,DEFB1 NUMBER OF GENES grade,[2]; 10%,"0 (if this expression is lower, the grade is 0)"
same,DHFR NUMBER OF GENES grade,[2]; 10%,"0 (if this expression is lower, the grade is 0)"
same,EHF NUMBER OF GENES grade,[2]; 10%,"1 (If the expression is greater than 1.3 compared to the control, a grade of 11s given)"
same,FABP4 NUMBER OF GENES grade,[2]; 10%,"0 (if this expression is lower, the grade is 0)"
same,HSP27 NUMBER OF GENES grade,[2]; 10%,"0 (if this expression is lower, the grade is 0)"
same,HSP90 NUMBER OF GENES grade,[2]; 10%,"0 (if this expression is lower, the grade is 0)"
same,IL18 NUMBER OF GENES grade,[2]; 10%,"0 (if this expression is lower, the grade is 0)"
same,IVL NUMBER OF GENES grade,[2]; 10%,"0 (if this expression is lower, the grade is 0)"
same,KRT4 NUMBER OF GENES grade,[2]; 10%,"0 (if this expression is lower, the grade is 0)"
same,MELANA NUMBER OF GENES grade,[2]; 10%,"1 (If the expression is greater than 1.3 compared to the control, a grade of 11s given)"
same,NGAL NUMBER OF GENES grade,[2]; 10%,"0 (if this expression is lower, the grade is 0)"
same,P13 NUMBER OF GENES grade,[2]; 10%,"0 (if this expression is lower, the grade is 0)"
same,PDZK1iP1 NUMBER OF GENES grade,[2]; 10%,"0 (if this expression is lower, the grade is 0)"
same,SENS >1.3 (number of genes),[2]; 10%,4
same,SERPINB3 NUMBER OF GENES grade,[2]; 10%,"0 (if this expression is lower, the grade is 0)"
same,TOTAL SENS (number of genes),[2]; 10%,4
same,BRAK expression,[2]; 10%,0.7
same,CTSS expression,[2]; 10%,1.0
same,CXCR1 expression,[2]; 10%,0.8
same,DAPK2 expression,[2]; 10%,1.3
same,DEFB1 expression,[2]; 10%,1.1
same,DHFR expression,[2]; 10%,0.8
same,EHF expression,[2]; 10%,1.3
same,FABP4 expression,[2]; 10%,0.6
same,HSP27 expression,[2]; 10%,1.1
same,HSP90 expression,[2]; 10%,1.1
same,IL18 expression,[2]; 10%,1.1
same,IVL expression,[2]; 10%,0.9
same,KRT4 expression,[2]; 10%,0.8
same,MELANA expression,[2]; 10%,1.9
same,NGAL expression,[2]; 10%,0.7
same,P13 expression,[2]; 10%,0.9
same,PDZK1iP1 expression,[2]; 10%,0.9
same,SERPINB3 expression,[2]; 10%,1.2
same,BRAK NUMBER OF GENES grade,[2]; 50%,"0 (if this expression is lower, the grade is 0)"
same,CTSS NUMBER OF GENES grade,[2]; 50%,"0 (if this expression is lower, the grade is 0)"
same,CXCR1 NUMBER OF GENES grade,[2]; 50%,"1 (If the expression is greater than 1.3 compared to the control, a grade of 11s given)"
same,DAPK2 NUMBER OF GENES grade,[2]; 50%,"1 (If the expression is greater than 1.3 compared to the control, a grade of 11s given)"
same,DEFB1 NUMBER OF GENES grade,[2]; 50%,"1 (If the expression is greater than 1.3 compared to the control, a grade of 11s given)"
same,DHFR NUMBER OF GENES grade,[2]; 50%,"0 (if this expression is lower, the grade is 0)"
same,EHF NUMBER OF GENES grade,[2]; 50%,"0 (if this expression is lower, the grade is 0)"
same,FABP4 NUMBER OF GENES grade,[2]; 50%,"1 (If the expression is greater than 1.3 compared to the control, a grade of 11s given)"
same,HSP27 NUMBER OF GENES grade,[2]; 50%,"1 (If the expression is greater than 1.3 compared to the control, a grade of 11s given)"
same,HSP90 NUMBER OF GENES grade,[2]; 50%,"1 (If the expression is greater than 1.3 compared to the control, a grade of 11s given)"
same,IL18 NUMBER OF GENES grade,[2]; 50%,"0 (if this expression is lower, the grade is 0)"
same,IVL NUMBER OF GENES grade,[2]; 50%,"1 (If the expression is greater than 1.3 compared to the control, a grade of 11s given)"
same,KRT4 NUMBER OF GENES grade,[2]; 50%,"1 (If the expression is greater than 1.3 compared to the control, a grade of 11s given)"
same,MELANA NUMBER OF GENES grade,[2]; 50%,"0 (if this expression is lower, the grade is 0)"
same,NGAL NUMBER OF GENES grade,[2]; 50%,"1 (If the expression is greater than 1.3 compared to the control, a grade of 11s given)"
same,P13 NUMBER OF GENES grade,[2]; 50%,"1 (If the expression is greater than 1.3 compared to the control, a grade of 11s given)"
same,PDZK1iP1 NUMBER OF GENES grade,[2]; 50%,"1 (If the expression is greater than 1.3 compared to the control, a grade of 11s given)"
same,SENS >1.3 (number of genes),[2]; 50%,15
same,SERPINB3 NUMBER OF GENES grade,[2]; 50%,"1 (If the expression is greater than 1.3 compared to the control, a grade of 11s given)"
same,TOTAL SENS (number of genes),[2]; 50%,15
same,BRAK expression,[2]; 50%,0.4
same,CTSS expression,[2]; 50%,0.1
same,CXCR1 expression,[2]; 50%,2.2
same,DAPK2 expression,[2]; 50%,1.5
same,DEFB1 expression,[2]; 50%,3.0
same,DHFR expression,[2]; 50%,0.6
same,EHF expression,[2]; 50%,1.2
same,FABP4 expression,[2]; 50%,1.4
same,HSP27 expression,[2]; 50%,5.4
same,HSP90 expression,[2]; 50%,9.1
same,IL18 expression,[2]; 50%,0.7
same,IVL expression,[2]; 50%,2.6
same,KRT4 expression,[2]; 50%,4.6
same,MELANA expression,[2]; 50%,1.0
same,NGAL expression,[2]; 50%,1.3
same,P13 expression,[2]; 50%,1.4
same,PDZK1iP1 expression,[2]; 50%,1.7
same,SERPINB3 expression,[2]; 50%,1.4
